Reference: patent US4950602A, “Inhibition of lactate production by pyruvate adducts” (Cornell Research Foundation, Inc., priority 1987, dated 1990)
Where two headings read alike, the source gives them in different places.

Legend:
lactate dehydrogenase = experiment: Reactive α-keto and α-hydroxy acids as inhibitors of lactate dehydrogenase; type: biochemical
Method: (§1) Each of the enzymes was assayed by procedures in which change of absorbance at 340 nm due to NADH was followed essentially as described by Bergmeyer (1974, Methods of Enzymatic Analysis, 2nd Eng. Ed., Verlag Chemie Weinheim Academic Press, N.Y.) with the following exceptions. Phosphofructokinase was assayed according to the method of Lai et al (1984, J. Neurochem., 42:438-446). NAD^+ -linked isocitrate dehydrogenase was assayed as described by Lai and Clark (1976, Biochem. J., 154:423-432). Pyruvate and α-ketoglutarate dehydrogenase complexes were respectively assayed according to the methods of Lai and Sheu (1985, J. Neurochem., 45:1861-1868) and Lai and Cooper (1986) (J. Neurochem, 47:1376-1386).

[1] = cited from earlier work; for stability in solution: Burgner and Ray 1984
[2] = biological target: T1, beef heart lactate dehydrogenase (Bos taurus, UniProt Q5E9B1); experiment: Inhibition of beef heart lactate dehydrogenase (NADH absorbance at 340 nm); type: biochemical, bovine; settings: for Relative Activity (%) Beef Heart: 0.24 mM pyruvate, 0.1 mM NADH, pH 7.2, 25° C.
T1 construct: purchased Worthington Biochemical Corporation (Freehold, N.J.); host or cells: beef heart
Source text: Enzymes and enzyme assays. Rabbit muscle glyceraldehyde-3-phosphate dehydrogenase (80 U/mg: ammonium sulfate suspension), rabbit muscle glycerol-3-phosphate dehydrogenase (40 U/mg; ammonium sulfate suspension),beef liver glutamate dehydrogenase (120 U/mg: in 50% glycerol), mitochondrial pig heart malate dehydrogenase (1100 U/mg; in 50% glycerol) and yeast hexokinase (140 U/mg; ammonium sulfate suspension) were purchased from Boehringer Mannheim Corp. (Indianapolis). Beef heart lactate dehydrogenase (280 U/mg) was purchased from Worthington Biochemical Corporation (Freehold, N.J.). Porcine heart L-alanine aminotransferase (130 U/mg), rabbit muscle phosphofructokinase (140 U/mg; ammonium sulfate suspension), bovine heart α-ketoglutarate (8 U/mg) and pyruvate (5 U/mg) dehydrogenase complexes, sodium pyruvate, L-methionine-SR-sulfoximine, DL-vinylglycine, NAD^+, NADH and NAD^+ analogues (3-acetylpyridine, thionicotinamide, and 3-pyridinealdehyde adenine dinucleotides) were purchased from Sigma Chemical Company (St. Louis, Mo.).
as §1
(§2) The reaction mixture (1 ml) contained 0.24 mM sodium pyruvate, 0.1 mM
(§3) NADH, 100 mM potassium phosphate buffer (pH 7.2) and either purified
(§4) bovine heart lactate dehydrogenase (0.01 U) or rat brain homogenate
(§5) containing ~0.02 U of lactate dehydrogenase activity; 25° C.
(§6) Since APADpyruvate adduct and RAP have a tendency to revert to pyruvate
(§7) they were added to the reaction mixture just prior to addition of enzyme.
(§8) Because the kinetics obtained with tightbinding inhibitors depends on the
(§9) order of addition of substrates and inhibitors the enzyme was always adde
(§10) last. Each value is the average of at least 3 determinations. Each of the […]

[3] = test system: rat brain lactate dehydrogenase; experiment: Inhibition of rat brain lactate dehydrogenase (rat brain homogenate); type: biochemical; settings: rat brain homogenate, 0.24 mM pyruvate, 0.1 mM NADH, pH 7.2, 25° C.
Method: as §1, §2, §3, §4, §5, §6, §7, §8, §9, §10

[4] = biological target: lactate dehydrogenase (dogfish enzyme) (Squalus acanthias, UniProt P00341); settings: Burgner and Ray 1984; cited from earlier work
[5] = biological target: chicken H4 lactate dehydrogenase (Gallus gallus, UniProt P00337); settings: concentration not given; Everse et al 1971; cited from earlier work
[6] = biological target: yeast alcohol dehydrogenase (Saccharomyces cerevisiae, UniProt P00330); settings: concentration that inhibited chicken H4 lactate dehydrogenase by 59%; Everse et al 1971; cited from earlier work
[7] = biological target: pig heart mitochondrial malate dehydrogenase (Sus scrofa, UniProt P00346); settings: concentration that inhibited chicken H4 lactate dehydrogenase by 59%; Everse et al 1971; cited from earlier work
[8] = biological target: horse liver alcohol dehydrogenase (Equus caballus, UniProt P00327); settings: concentration that inhibited chicken H4 lactate dehydrogenase by 59%; Everse et al 1971; cited from earlier work
[9] = test system: dogfish liver glutamate dehydrogenase; settings: concentration that inhibited chicken H4 lactate dehydrogenase by 59%; Everse et al 1971; cited from earlier work

T1 sequence (Q5E9B1 whole entry): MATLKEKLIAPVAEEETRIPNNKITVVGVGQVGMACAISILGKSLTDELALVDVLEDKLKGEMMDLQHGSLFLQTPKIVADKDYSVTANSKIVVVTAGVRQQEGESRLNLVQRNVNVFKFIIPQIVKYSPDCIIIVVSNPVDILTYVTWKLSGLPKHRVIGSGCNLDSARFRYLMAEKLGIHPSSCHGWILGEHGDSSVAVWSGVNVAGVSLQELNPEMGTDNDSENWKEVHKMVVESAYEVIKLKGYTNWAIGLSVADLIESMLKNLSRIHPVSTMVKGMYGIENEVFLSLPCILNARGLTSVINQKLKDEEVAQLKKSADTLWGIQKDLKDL
Chain of chicken H4 lactate dehydrogenase (P00337 whole entry): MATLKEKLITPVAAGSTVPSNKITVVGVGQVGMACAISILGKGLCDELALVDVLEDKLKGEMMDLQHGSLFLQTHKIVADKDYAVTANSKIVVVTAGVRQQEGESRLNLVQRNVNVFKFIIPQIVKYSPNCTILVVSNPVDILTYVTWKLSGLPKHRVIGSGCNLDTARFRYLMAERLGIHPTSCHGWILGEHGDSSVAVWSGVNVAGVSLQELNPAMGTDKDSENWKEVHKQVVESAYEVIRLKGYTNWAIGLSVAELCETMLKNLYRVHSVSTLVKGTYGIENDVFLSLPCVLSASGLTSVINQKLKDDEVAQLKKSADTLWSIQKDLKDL
Chain of pig heart mitochondrial malate dehydrogenase (P00346 25-338): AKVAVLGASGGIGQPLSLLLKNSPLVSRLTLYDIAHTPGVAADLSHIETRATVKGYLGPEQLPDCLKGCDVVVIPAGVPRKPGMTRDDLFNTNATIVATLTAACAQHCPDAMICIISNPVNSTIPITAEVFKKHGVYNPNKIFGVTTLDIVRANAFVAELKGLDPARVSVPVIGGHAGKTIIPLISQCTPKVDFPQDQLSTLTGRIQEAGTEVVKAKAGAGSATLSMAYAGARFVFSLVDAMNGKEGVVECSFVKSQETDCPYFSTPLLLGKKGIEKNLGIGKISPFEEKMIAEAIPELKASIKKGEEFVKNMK
Chain of lactate dehydrogenase (dogfish enzyme) (P00341 whole entry): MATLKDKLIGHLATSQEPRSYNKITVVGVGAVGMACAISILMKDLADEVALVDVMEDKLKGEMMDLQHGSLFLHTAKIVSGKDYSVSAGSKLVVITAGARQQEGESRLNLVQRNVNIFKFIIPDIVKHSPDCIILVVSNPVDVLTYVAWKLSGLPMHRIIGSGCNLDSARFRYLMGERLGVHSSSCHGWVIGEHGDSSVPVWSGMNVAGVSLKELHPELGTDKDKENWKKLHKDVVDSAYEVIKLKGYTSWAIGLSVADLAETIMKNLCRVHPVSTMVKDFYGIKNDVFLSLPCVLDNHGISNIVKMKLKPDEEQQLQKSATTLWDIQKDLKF
Chain of yeast alcohol dehydrogenase (P00330 whole entry): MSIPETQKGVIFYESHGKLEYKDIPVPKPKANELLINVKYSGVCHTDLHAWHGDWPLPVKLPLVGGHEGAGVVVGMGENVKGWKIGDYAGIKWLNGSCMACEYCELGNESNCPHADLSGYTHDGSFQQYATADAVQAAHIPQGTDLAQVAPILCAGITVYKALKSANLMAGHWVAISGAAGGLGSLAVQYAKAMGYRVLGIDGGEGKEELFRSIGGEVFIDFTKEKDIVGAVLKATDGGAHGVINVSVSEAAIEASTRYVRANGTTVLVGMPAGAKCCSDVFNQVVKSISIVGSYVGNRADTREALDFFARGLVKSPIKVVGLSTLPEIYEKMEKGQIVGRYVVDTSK
Chain of horse liver alcohol dehydrogenase (P00327 whole entry): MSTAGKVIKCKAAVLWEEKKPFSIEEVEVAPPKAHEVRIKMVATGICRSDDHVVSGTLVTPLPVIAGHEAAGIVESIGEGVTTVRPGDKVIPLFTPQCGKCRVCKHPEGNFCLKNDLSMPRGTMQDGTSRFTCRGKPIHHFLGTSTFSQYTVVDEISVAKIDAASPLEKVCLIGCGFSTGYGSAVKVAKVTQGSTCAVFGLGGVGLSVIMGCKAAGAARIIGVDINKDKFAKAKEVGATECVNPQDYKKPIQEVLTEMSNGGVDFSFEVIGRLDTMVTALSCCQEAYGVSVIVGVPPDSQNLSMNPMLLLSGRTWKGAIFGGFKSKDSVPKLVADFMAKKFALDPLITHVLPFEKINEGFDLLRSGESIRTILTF

In the case of CC=CC(=O)C(=O)O [2-oxo-3-pentenoic acid], the “action on lactate dehydrogenase” value (lactate dehydrogenase) is reported as “substrates, not inhibitors”.
For CC(=O)C1=CN([C@@H]2O[C@H](COP(=O)(O)OP(=O)(O)OC[C@H]3O[C@@H](n4cnc5c(N)ncnc54)[C@H](O)[C@@H]3O)[C@@H](O)[C@H]2O)C=CC1CC(=O)C(=O)O (stereo partly drawn) [Acetyl analogue, reference compound], the stability in solution ([1]; pH 7.0) is listed as “reverts to free pyruvate and APAD”, the stability in solution ([1]; pH 11.0) is listed as “relatively stable” and the “Relative Activity (%) Beef Heart” value ([2]; additive 0.08 μM) is listed as 90%. For the same compound, the “Relative Activity (%) Beef Heart” value ([2]; additive 0.42 μM) was 60%, the “Relative Activity (%) Beef Heart” value ([2]; additive 0.84 μM) was 21% and the “Relative Activity (%) Rat Brain” value ([3]; additive 0.42 μM) was 61%. For the same compound, the “Relative Activity (%) Rat Brain” value ([3]; additive 0.84 μM) was 30% and the Ki [4] was 0.1 nM.
For NC(=O)C1=CN([C@@H]2O[C@H](COP(=O)(O)OP(=O)(O)OC[C@H]3O[C@@H](n4cnc5c(N)ncnc54)[C@H](O)[C@@H]3O)[C@@H](O)[C@H]2O)C=CC1CC(=O)C(=O)O (stereo partly drawn) [NAD-pyruvate adduct], the “inhibition of chicken H4 lactate dehydrogenase” value [5] is listed as 59%, the “stability (loss of absorbance at 340 nm)” value ([1]; Everse et al 1971) is listed as “relatively unstable and easily oxidized” and the “effect on yeast alcohol dehydrogenase” value [6] is listed as “little effect”. For the same compound, the “effect on pig heart mitochondrial malate dehydrogenase” value [7] was “little effect”, the “Relative Activity (%) Beef Heart” value ([2]; additive 34 μM) was 90% and the “Relative Activity (%) Beef Heart” value ([2]; additive 68 μM) was 62%. The “Relative Activity (%) Beef Heart” value ([2]; additive 136 μM) was 38%, the Ki ([2]; calculated from Table 1 data with Km for NADH 2.5 μM, standard equation for a competitive inhibitor, read-out: Ki) was 2600 nM and the “effect on horse liver alcohol dehydrogenase” value [8] was “little effect”. For the same compound, the “Relative Activity (%) Rat Brain” value ([3]; additive 34 μM) was 48% and the “effect on dogfish liver glutamate dehydrogenase” value [9] was “little effect”.
With NC(=S)C1=CN([C@@H]2O[C@H](COP(=O)(O)OP(=O)(O)OC[C@H]3O[C@@H](n4cnc5c(N)ncnc54)[C@H](O)[C@@H]3O)[C@@H](O)[C@H]2O)C=CC1CC(=O)C(=O)O (stereo partly drawn) [Thio analogue] the “Relative Activity (%) Beef Heart” value ([2]; additive 0.7 μM) was 38%, the “Relative Activity (%) Beef Heart” value ([2]; additive 1.4 μM) was 17% and the “Relative Activity (%) Rat Brain” value ([3]; additive 1.4 μM) was 33%.
In the case of Vinylglycolate, the “action on lactate dehydrogenase” value (lactate dehydrogenase) is reported as “substrates, not inhibitors”.
